Assay results reported in patent US8338455B2, “Compounds and methods of use” (Amgen Inc., priority 2006, dated 2012).

Each compound was assayed against KDR (Homo sapiens, UniProt P35968) (assay: KDR kinase inhibition (Ki)).
Assay type: biochemical

Sequence of KDR (P35968 20-1356, species assumed): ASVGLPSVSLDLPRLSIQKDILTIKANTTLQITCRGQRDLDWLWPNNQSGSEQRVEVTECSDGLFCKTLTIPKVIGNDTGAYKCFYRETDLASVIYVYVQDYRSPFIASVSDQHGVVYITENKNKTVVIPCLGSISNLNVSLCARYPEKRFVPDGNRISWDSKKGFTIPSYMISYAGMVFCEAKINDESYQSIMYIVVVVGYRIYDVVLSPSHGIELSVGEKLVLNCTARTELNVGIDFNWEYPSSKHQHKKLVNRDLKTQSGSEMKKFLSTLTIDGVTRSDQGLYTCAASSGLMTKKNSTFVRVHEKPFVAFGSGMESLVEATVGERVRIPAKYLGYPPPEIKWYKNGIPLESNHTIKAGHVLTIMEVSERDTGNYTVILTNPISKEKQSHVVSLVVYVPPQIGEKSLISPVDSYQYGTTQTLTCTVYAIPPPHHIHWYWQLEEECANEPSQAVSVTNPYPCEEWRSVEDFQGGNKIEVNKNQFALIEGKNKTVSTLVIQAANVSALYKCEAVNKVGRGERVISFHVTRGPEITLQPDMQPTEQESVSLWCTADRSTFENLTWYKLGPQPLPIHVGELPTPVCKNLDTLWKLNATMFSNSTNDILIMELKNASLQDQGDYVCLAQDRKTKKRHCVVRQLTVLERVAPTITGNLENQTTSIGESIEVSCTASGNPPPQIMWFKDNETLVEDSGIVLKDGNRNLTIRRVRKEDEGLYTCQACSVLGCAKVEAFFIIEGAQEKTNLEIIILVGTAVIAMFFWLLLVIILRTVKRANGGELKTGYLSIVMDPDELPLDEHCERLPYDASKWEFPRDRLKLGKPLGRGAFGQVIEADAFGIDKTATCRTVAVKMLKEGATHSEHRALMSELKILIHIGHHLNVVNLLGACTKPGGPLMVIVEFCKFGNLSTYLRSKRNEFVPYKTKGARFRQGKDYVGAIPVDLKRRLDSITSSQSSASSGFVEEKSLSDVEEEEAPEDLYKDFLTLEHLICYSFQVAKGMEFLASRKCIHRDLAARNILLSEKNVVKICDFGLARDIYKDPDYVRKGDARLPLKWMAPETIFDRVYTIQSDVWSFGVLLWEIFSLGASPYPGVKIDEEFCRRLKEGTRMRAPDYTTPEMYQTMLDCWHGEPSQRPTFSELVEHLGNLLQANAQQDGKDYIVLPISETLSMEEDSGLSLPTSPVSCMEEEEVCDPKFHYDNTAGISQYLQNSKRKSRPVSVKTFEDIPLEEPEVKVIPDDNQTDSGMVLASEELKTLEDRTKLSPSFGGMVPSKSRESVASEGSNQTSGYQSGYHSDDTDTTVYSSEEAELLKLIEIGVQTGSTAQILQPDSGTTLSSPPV

| Ki [nM] | Structure (SMILES) |
| --- | --- |
| 333 | CC(C)(C)c1ccc(NC(=O)c2cccc3c2CCN(Cc2ccncc2)C3)cc1 [Example 1A] |
| 42.8 | COc1cc(NC(=O)c2cccc3c2CCN(Cc2ccnc4ccccc24)C3)cc(OC)c1 [Example 3C] |
| 5.4 | CC(=O)N1CC(C)(C)c2ccc(NC(=O)c3cccc4c3CCN(Cc3ccnc5ccccc35)C4)cc21 [Example 3H] |
| 529 | COc1cc2nccc(Cn3ccc4cc(Cl)ccc4c3=O)c2cc1OC [Example 11, 6-chloro-2-((6,7-dimethoxyquinolin-4-yl)methyl)isoquinolin-1(2H)-one] |
| 72.3 | CC(C)c1ccc(NC(=O)Nc2cccc3c2CCN(Cc2ccnc4ccccc24)C3)cc1 [Example 5A] |
| 70.1 | O=C(Nc1ccc(Cl)cc1)Nc1cccc2c1CCN(Cc1ccnc3ccccc13)C2 [Example 5C] |
| 105 | Cc1cccc(NC(=O)c2cccc3c2CCN(Cc2ccnc4ccccc24)C3)c1 [Example 3A] |
| 11.1 | CC(C)(C)c1ccc(NC(=O)c2cccc3c2CCN(Cc2ccnc4ccccc24)C3=O)cc1 [Example 7A] |
| 1.6 | COc1cc2nccc(CN3CCc4c(C(=O)Nc5ccc(Cl)c(C(F)(F)F)c5)cccc4C3=O)c2cc1OC [Example 10A] |
| 3000 | O=C(Nc1ccc(Cl)cc1)c1cccc2c1CCN(Cc1ccncc1)C2 [Example 1, N-(4-chlorophenyl)-2-(pyridin-4-ylmethyl)-1,2,3,4-tetrahydroisoquinoline-5-carboxamide] |
